In article PMC8348017 (Molecules, 2021):

How the values were obtained:
Assay type in all cases: biochemical
hBuChE = biological target: T1, hBuChE (Homo sapiens, UniProt P06276); experiment: Ellman assay, % inhibition at […]; settings: read-out: hBuChE % Inh 100 μM
T1 construct: gene BCHE; BuChE isolated from human serum

hMAO-A = biological target: T2, hMAO-A (Homo sapiens, UniProt P21397); experiment: Amplex Red MAO fluorimetric assay, % inhibition at […]; settings: read-out: hMAO-A % Inh 100 μM
T2 construct: gene MAOA; recombinant hMAO-A
T2 sequence (P21397 1-527): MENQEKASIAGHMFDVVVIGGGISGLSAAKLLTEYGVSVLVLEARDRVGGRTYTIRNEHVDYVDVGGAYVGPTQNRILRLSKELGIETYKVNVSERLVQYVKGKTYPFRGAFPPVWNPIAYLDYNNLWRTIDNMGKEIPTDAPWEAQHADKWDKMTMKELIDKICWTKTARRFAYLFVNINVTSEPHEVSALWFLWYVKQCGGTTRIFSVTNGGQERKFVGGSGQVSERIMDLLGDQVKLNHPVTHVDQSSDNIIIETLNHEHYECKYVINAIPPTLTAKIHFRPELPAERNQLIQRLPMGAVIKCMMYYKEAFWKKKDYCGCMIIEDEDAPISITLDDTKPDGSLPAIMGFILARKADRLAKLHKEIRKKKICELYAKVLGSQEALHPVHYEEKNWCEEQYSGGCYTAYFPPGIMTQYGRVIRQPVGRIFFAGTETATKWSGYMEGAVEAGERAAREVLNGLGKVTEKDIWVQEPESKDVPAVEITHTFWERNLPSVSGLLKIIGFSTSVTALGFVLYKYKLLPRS

hMAO-B [1] = biological target: T3, hMAO-B (Homo sapiens, UniProt P27338); experiment: as above; settings: read-out: hMAO-B % Inh 100 μM
T3 construct: gene MAOB; recombinant hMAO-B
T3 sequence (P27338 2-520): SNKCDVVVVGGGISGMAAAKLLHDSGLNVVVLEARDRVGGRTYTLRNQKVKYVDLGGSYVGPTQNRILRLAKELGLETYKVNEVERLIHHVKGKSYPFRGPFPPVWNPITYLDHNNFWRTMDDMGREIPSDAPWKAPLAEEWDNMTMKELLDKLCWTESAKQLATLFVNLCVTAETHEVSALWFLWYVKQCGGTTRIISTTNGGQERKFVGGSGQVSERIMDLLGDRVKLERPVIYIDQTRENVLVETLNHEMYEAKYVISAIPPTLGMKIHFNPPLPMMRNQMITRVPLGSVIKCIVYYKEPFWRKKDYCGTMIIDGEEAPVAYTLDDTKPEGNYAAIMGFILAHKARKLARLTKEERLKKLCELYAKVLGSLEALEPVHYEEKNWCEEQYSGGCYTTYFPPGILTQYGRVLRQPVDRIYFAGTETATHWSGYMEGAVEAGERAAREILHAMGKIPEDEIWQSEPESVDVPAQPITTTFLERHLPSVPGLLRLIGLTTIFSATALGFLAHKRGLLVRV

hMAO-B [2] = biological target: T3, hMAO-B; experiment: Amplex Red MAO fluorimetric assay, recombinant enzyme, p-tyramine substrate

T1 sequence (P06276 29-602): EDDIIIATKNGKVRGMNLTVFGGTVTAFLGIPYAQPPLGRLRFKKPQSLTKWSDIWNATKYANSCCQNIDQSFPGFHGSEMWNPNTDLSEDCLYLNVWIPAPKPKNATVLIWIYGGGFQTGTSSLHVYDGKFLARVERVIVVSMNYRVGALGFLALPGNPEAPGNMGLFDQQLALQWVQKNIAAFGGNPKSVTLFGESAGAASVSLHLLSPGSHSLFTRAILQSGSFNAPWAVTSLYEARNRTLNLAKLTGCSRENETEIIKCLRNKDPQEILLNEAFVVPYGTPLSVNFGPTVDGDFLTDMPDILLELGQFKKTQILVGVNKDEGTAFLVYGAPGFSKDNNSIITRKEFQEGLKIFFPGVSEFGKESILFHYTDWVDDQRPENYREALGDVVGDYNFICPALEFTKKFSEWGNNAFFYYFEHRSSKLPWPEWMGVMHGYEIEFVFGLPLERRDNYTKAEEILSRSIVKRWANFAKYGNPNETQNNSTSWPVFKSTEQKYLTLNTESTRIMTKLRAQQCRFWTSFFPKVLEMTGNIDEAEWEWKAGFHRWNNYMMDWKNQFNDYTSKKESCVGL

For `O=C(/C=C/c1c(O)cc(O)cc1O)CC(=O)/C=C/c1cc2cc(O)c(O)cc2oc1=O` [compound 15, 6,7-Dihydroxy-3-(7-(2′,4′,6′-trihydroxyphenyl)-3,5-dioxohepta-1,6-dien-1-yl)coumarin], the inhibition at 100 µM (hBuChE) was 50.9 ± 3.41%.
`O=C(/C=C(O)/C=C/c1cc(O)c(O)c(O)c1)/C=C/c1cc2cc(O)c(O)cc2oc1=O` [compound 18, 6,7-Dihydroxy-3-(7-(3′,4′,5′-trihydroxyphenyl)-3,5-dioxohepta-1,6-dien-1-yl)coumarin] was tested, and the inhibition at 100 µM (hMAO-A) was 51.5 ± 3.45% and the inhibition at 100 µM (hMAO-B [1]) was 55.7 ± 3.74%.
`O=C(/C=C(O)/C=C/c1cc(O)c(O)c(O)c1)/C=C/c1cc2ccc(O)c(O)c2oc1=O` [compound 14, 7,8-Dihydroxy-3-(7-(3′,4′,5′-trihydroxyphenyl)-3,5-dioxohepta-1,6-dien-1-yl)coumarin] gave an inhibition at 100 µM (hMAO-A) of 54.3 ± 3.64%.
With `O=C(/C=C(O)/C=C/c1cc(O)c(O)cc1O)/C=C/c1cc2cc(O)c(O)cc2oc1=O` [compound 16, 6,7-Dihydroxy-3-(7-(2′,4′,5′-trihydroxyphenyl)-3,5-dioxohepta-1,6-dien-1-yl)coumarin] the inhibition at 100 µM (hMAO-A) was 58.2 ± 3.9% and the IC50 (hMAO-B [2]) was 26.2 ± 1.76 µM.
For `O=C(/C=C(O)/C=C/c1cc(O)c(O)cc1O)/C=C/c1cc2ccc(O)c(O)c2oc1=O` [compound 12, 7,8-Dihydroxy-3-(7-(2′,4′,5′-trihydroxyphenyl)-3,5-dioxohepta-1,6-dien-1-yl)coumarin], the inhibition at 100 µM (hMAO-A) was 60.9 ± 4.09%.
